From the NIST ThermoML archive (doi:10.1021/je5002686)
“And” between values parts separate entries of the source, which are not always exact repeats. Equal values may be shown once.

Conditions: Liquid, Vibrating tube method

CCOC(F)(C(F)(F)C(F)(F)C(F)(F)F)C(F)(C(F)(F)F)C(F)(F)F (centres undefined) [2-trifluoromethyl-3-ethoxydodecafluorohexane]
mass density
Conditions	270 K	290 K	310 K	330 K	350 K
490 kPa	1678.1 kg/m3	1637.9 kg/m3	1597.2 kg/m3	1555.1 kg/m3	–
500 kPa	1678.3 kg/m3	1638.1 kg/m3 and 1638.2 kg/m3	1597.2 kg/m3 and 1597.5 kg/m3	1555.2 kg/m3 and 1555 kg/m3	1511.4 kg/m3 and 1511.5 kg/m3
510 kPa	–	–	–	–	1511.6 kg/m3
990 kPa	1679.2 kg/m3 and 1679.3 kg/m3	1639.4 kg/m3 and 1639.5 kg/m3	1598.7 kg/m3	–	1513.6 kg/m3
1000 kPa	1679.2 kg/m3	1639.2 kg/m3	1598.7 kg/m3 and 1599 kg/m3	1556.9 kg/m3 and 1556.7 kg/m3	1513.7 kg/m3 and 1513.5 kg/m3
1990 kPa	1681.3 kg/m3	1641.9 kg/m3	–	1560.4 kg/m3	1517.8 kg/m3
2000 kPa	1681.5 kg/m3	1641.7 kg/m3 and 1642 kg/m3	1601.6 kg/m3 and 1601.9 kg/m3	1560.2 kg/m3 and 1560.3 kg/m3	1517.6 kg/m3 and 1517.8 kg/m3
2990 kPa	–	1644.4 kg/m3	1604.8 kg/m3	1563.6 kg/m3	1521.8 kg/m3
3000 kPa	1683.4 kg/m3	1644.3 kg/m3 and 1644.1 kg/m3	1604.5 kg/m3 and 1604.4 kg/m3	1563.8 kg/m3 and 1563.7 kg/m3	1521.9 kg/m3 and 1521.7 kg/m3
3010 kPa	1683.6 kg/m3	–	–	–	–
3990 kPa	1685.5 kg/m3	1646.7 kg/m3 and 1646.5 kg/m3	1607.3 kg/m3	1567 kg/m3	–
4000 kPa	1685.6 kg/m3	1646.8 kg/m3	1607.2 kg/m3 and 1607.6 kg/m3	1567.1 kg/m3 and 1566.9 kg/m3	1525.8 kg/m3 and 1525.6 kg/m3 and 1525.7 kg/m3
4990 kPa	1687.5 kg/m3	1649.1 kg/m3	1609.9 kg/m3	1570.2 kg/m3	1529.4 kg/m3
5000 kPa	1687.7 kg/m3 and 1687.5 kg/m3	1648.9 kg/m3 and 1649.2 kg/m3	1610 kg/m3	1570.3 kg/m3 and 1570.1 kg/m3	1529.6 kg/m3 and 1529.5 kg/m3
5010 kPa	–	–	1610.3 kg/m3	–	–
9990 kPa	1697.3 kg/m3	1660.3 kg/m3 and 1660.1 kg/m3 and 1660.4 kg/m3	–	1585.3 kg/m3	1547.1 kg/m3
10000 kPa	1697.3 kg/m3 and 1697.4 kg/m3	–	1622.9 kg/m3 and 1623.3 kg/m3 and 1623 kg/m3	1585.1 kg/m3 and 1585.2 kg/m3	1546.9 kg/m3 and 1547 kg/m3
14990 kPa	1706.5 kg/m3	–	–	–	–
15000 kPa	1706.5 kg/m3 and 1706.6 kg/m3	1670.8 kg/m3 and 1670.6 kg/m3	1634.8 kg/m3 and 1635.2 kg/m3 and 1634.9 kg/m3	1598.9 kg/m3 and 1598.7 kg/m3 and 1598.8 kg/m3	1562.7 kg/m3 and 1562.5 kg/m3 and 1562.6 kg/m3
19990 kPa	–	1680.5 kg/m3 and 1680.3 kg/m3	1645.8 kg/m3 and 1645.9 kg/m3	1611.3 kg/m3 and 1611.2 kg/m3	1576.5 kg/m3 and 1576.6 kg/m3
20000 kPa	1715.1 kg/m3 and 1715.2 kg/m3	1680.6 kg/m3	1646.2 kg/m3	1611.2 kg/m3	1576.8 kg/m3
24990 kPa	1723.4 kg/m3	–	–	–	1589.6 kg/m3 and 1589.4 kg/m3 and 1589.5 kg/m3
25000 kPa	1723.3 kg/m3 and 1723.5 kg/m3	1689.7 kg/m3 and 1689.5 kg/m3	1656.1 kg/m3	1622.9 kg/m3 and 1622.6 kg/m3 and 1622.7 kg/m3	–
25010 kPa	–	–	1656.5 kg/m3 and 1656.2 kg/m3	–	–
29990 kPa	1731.3 kg/m3	–	1665.8 kg/m3	1633.5 kg/m3	1601.3 kg/m3
30000 kPa	1731.1 kg/m3 and 1731.2 kg/m3	1698.4 kg/m3	1666.2 kg/m3	1633.4 kg/m3 and 1633.5 kg/m3	1601.5 kg/m3 and 1601.4 kg/m3
30010 kPa	–	1698.3 kg/m3	1665.7 kg/m3	–	–
34990 kPa	1738.7 kg/m3	1706.7 kg/m3	1674.8 kg/m3	1643.6 kg/m3 and 1643.5 kg/m3	1612.3 kg/m3 and 1612.4 kg/m3
35000 kPa	1738.6 kg/m3 and 1738.7 kg/m3	1706.5 kg/m3	1674.9 kg/m3	1643.4 kg/m3	1612.6 kg/m3
35010 kPa	–	1706.7 kg/m3	1675.3 kg/m3	–	–
40000 kPa	1745.7 kg/m3 and 1745.8 kg/m3 and 1745.9 kg/m3	1714.6 kg/m3 and 1714.4 kg/m3 and 1714.5 kg/m3	1683.5 kg/m3 and 1683.9 kg/m3 and 1683.6 kg/m3	1653.1 kg/m3 and 1652.8 kg/m3 and 1652.9 kg/m3	–
44990 kPa	1752.7 kg/m3	1722.1 kg/m3	–	1661.8 kg/m3 and 1661.9 kg/m3	–
45000 kPa	1752.6 kg/m3	1721.9 kg/m3 and 1722.1 kg/m3	1691.7 kg/m3 and 1692.2 kg/m3 and 1691.8 kg/m3	1662 kg/m3	–
49930 kPa	–	1729.2 kg/m3	–	–	–
49940 kPa	–	1729.1 kg/m3	–	–	–
49950 kPa	–	1729 kg/m3	–	–	–
49960 kPa	1759.2 kg/m3	–	–	–	–
49970 kPa	1759.2 kg/m3	–	1699.6 kg/m3	–	–
49980 kPa	–	–	–	1670.4 kg/m3	–
49990 kPa	–	–	–	1670.3 kg/m3	–
50000 kPa	1759.4 kg/m3	–	–	–	–
50010 kPa	–	–	1699.6 kg/m3	1670.6 kg/m3	–
50050 kPa	–	–	1700.1 kg/m3	–	–
